One compound from US9801925B2, “Potentiation of glucose elimination” (MannKind Corporation, priority 1999, dated 2017) can be followed below.

This data set is described as follows: Excretion of FDKP after pulmonary administration of Technosphere particles. It counts as in vivo. An excerpt: Technosphere® refers to a diketopiperazine-based drug delivery system which can complex and stabilize peptides in small particles. Diketopiperazines, particularly fumaryl diketopiperazine (FDKP), self-assemble into microparticles with a mean diameter of about 2 microns. In the process it can entrap or complex with peptides, such as insulin, present in the solution during or after self-assembly. Once dried, these microparticles become a suitable composition for pulmonary delivery to the systemic circulation. When administered by the pulmonary route, Technosphere® particles dissolve in the pH neutral environment of the deep lung and facilitate the rapid and efficient absorption of the peptide into systemic circulation.

For `O=C(O)/C=C/C(=O)NCCCCC1NC(=O)C(CCCCNC(=O)/C=C/C(=O)O)NC1=O` (stereo not shown) [FDKP, 3,6-di(fumaryl-4-aminobutyl)-2,5-diketopiperazine], the excretion entry was “excreted un-metabolized in the urine within hours of administration”.
